# Legend:
# human = conditions: in vivo; cited from earlier work
# rodents = conditions: in vivo; cited from earlier work
# mouse = conditions: in vivo; cited from earlier work
# [1] = test system: human embryoid bodies (H9 HESCs); assay: DNA microarray global gene expression profiling of treated HESC embryoid bodies; conditions: for genes whose expression was significantly changed (over two-fold) relative to untreated controls: EBs treated seven days
# Procedure: Differentiation in-vitro into embryoid bodies (EBs) was performed by trypsinizing confluent cultures using 0.25% trypsin-A in DPBS solution (Biological industries, Beit-Haemek, Israel) for 15 seconds to dissociate the colonies into large clumps. Clumps were then transferred 1:1 into non-stick petri dishes and grown in regular HESC medium but without exogenous FGF2.
# Drug treatments: Embryoid body media were supplemented with the various treatment compounds on the first day and changed on alternate days. […] Thalidomide (Sigma, T144) was dissolved in DMSO at 1000× stock solution and used at a final concentration of 10 μg/ml. All-trans-Retinoic acid (Sigma, R2625) was dissolved in DMSO at 100,000× stock solution and used at a final concentration of 1 μM.
# Microarray data analysis: Following seven days in culture, embryoid bodies were harvested and RNA was extracted using RBC Bioscience (Taipei, Taiwan) total RNA extraction minikit (YRB50) according to the manufacturer's protocol. Hybridization to GeneChip Human Gene 1.0 ST expression arrays, washing and scanning were performed according to the manufacturer's protocol (Affymetrix). Arrays were analyzed using RMA probeset condensation algorithm (Expression Console, Affymetrix). […] Tissue specific genes were identified by comparing the expression of each of the five most relevant tissues to the mean expression of all other tissues (testis, brain, heart, spleen, skeletal muscle, kidney, liver, and breast). The top 200 genes by fold change for every tissue were regarded to be tissue specific genes.
# Genes were considered differentially expressed when changed over two-fold. […] Significance was calculated separately for each test using a Chi-Square independence test and corrected for multiple testing (Bonferroni). […] Functional classification and significance were performed using the DAVID online functional annotation tool (worldwidewebdotdaviddotabccdotncifcrfdotgov/) using default settings, with a minimum p-value of 0.0001. General annotations with over 2000 members were removed from the analysis.
# [2] = test system: AFP, SOX17, HOXA1, NCAM1 in EBs; assay: Immunofluorescent labeling of treated EBs; type: cell-based, human
# Procedure: Immunofluorescent labeling: EBs were treated for seven days with either 1.5% ethanol or 1 μM all-trans-retinoic acid (see Drug Treatment section). EBs were let to settle and perfused with 10% sucrose-PBS solution for 30 minutes at 4° C., followed by an additional step in 30% sucrose-PBS solution for 1 hr at 4° C., with gentle shaking. EBs were then frozen in Tissue-Tek OCT solution (Sakura Finetek, USA) and cut into 9 μm sections. Samples were fixed following sectioning with PBS buffered 4% formaldehyde solution for 3 minutes. Blocking was performed with PBS, 2% BSA, 0.1% Triton x-100 solution for 1 hour at room temperature. Sections were incubated overnight at 4° C. with the following primary antibodies; AFP at 1:50 dilution (SC-8399, Santa-Cruz); HOXA1 at 1:50 dilution (SC-17146, Santa-Cruz); NCAM-1 at 1:150 dilution (AF2408, R&D Systems); SOX17 at 1:400 dilution (AF1924, R&D Systems). The sections were then incubated for 1 hour with the appropriate secondary antibody (Cy-3, Jackson ImmunoResearch) at room temperature. Finally, sections were counterstained with Hoechst (B2883, Sigma) for 10 minutes at room temperature.
# Specifically, the protein levels of the fetal liver specific gene AFP and the earlier endodermal marker SOX17 were examined to assess the effects of ethanol treatment. The effect of RA treatment on neural differentiation was determined using antibodies for the HOXA1 protein and the neuronal specific protein NCAM1.
# [3] = test system: HiPSC EBs (hTERT-BJ1 derived clone #28); assay: DNA microarray gene expression profiling of RA-treated HiPSC embryoid bodies; type: cell-based, human; conditions: RA 1 μM, seven days
# Procedure: Thalidomide was tested twice and caffeine once.
# [4] = lithium chloride 1 mM, caffeine 50 mg/ml, RA 1 μM, thalidomide 10 μg/ml
# [5] = Gene Ontology functional annotation (DAVID), thalidomide 10 μg/ml
# [6] = seven days, RA 1 μM, thalidomide 10 μg/ml
compound,measurement,setting,value
CC(=O)Oc1ccccc1C(=O)O [aspirin],teratogenicity in humans,human,not in humans
same,teratogenicity in rodents,rodents,teratogenic
"O=C1CCC(N2C(=O)c3ccccc3C2=O)C(=O)N1 (centres unmarked) [thalidomide, Thalidomide]",teratogenicity in the mouse,mouse,not identified prospectively as such
same,teratogenicity in humans,human,strong human teratogen
same,genes whose expression was significantly changed (over two-fold) relative to untreated controls,[1]; [4],several hundred
same,"downregulation of oxidative stress response genes, enrichment",[1]; [5],15.8 fold
same,"nervous system development genes affected, enrichment",[1]; [5],2.5 fold
same,"transforming growth factor beta genes affected, enrichment",[1]; [5],29.6 fold
same,"upregulation of genes responsible for metabolism of xenobiotics, enrichment",[1]; [5],11.5 fold
same,fold enrichment of brain specific genes in upregulated genes,[1]; [6],12.5 fold
same,fold enrichment of liver specific genes in downregulated genes,"[1]; seven days, thalidomide 10 μg/ml",4.4 fold
"CCO [ethanol, Ethanol]",AFP staining (protein level),"[2]; 1.5% ethanol, seven days",dramatic increase
same,SOX17 staining (protein level),"[2]; 1.5% ethanol, seven days",dramatic increase
same,AFP staining (protein level),"[2]; 1.5% ethanol, seven days, listed as Ethanol",elevation of AFP staining
same,enriched functional annotations for downregulated genes,"[1]; DAVID functional annotation, ethanol",no significantly enriched functional annotations
same,genes whose expression was significantly changed (over two-fold) relative to untreated controls,[1]; 0.5% ethanol (v/v),little or no effect
same,genes whose expression was significantly changed (over two-fold) relative to untreated controls,"[1]; ethanol 1.5% and 2%, analyzed together",several hundred
same,"liver protein genes, upregulated functional group enrichment","[1]; Gene Ontology functional annotation (DAVID), ethanol treated EBs",9.3 fold
same,"expression of later adult hepatic markers (albumin, alcohol dehydrogenase genes)",[1]; ethanol treated EBs,not upregulated
same,"expression of early hepatic markers (AFP, transthyretin, apolipoprotein and fibrinogen genes)",[1]; high ethanol (1.5% and 2%),specifically upregulated
"CC1=C(/C=C/C(C)=C/C=C/C(C)=C/C(=O)O)C(C)(C)CCC1 [RA, All-trans-Retinoic acid]",expression of anterior HoxA and HoxB genes,[3],specifically upregulated
same,NCAM1 abundance at the protein level,"[2]; 1 μM all-trans-retinoic acid, seven days",increase
same,differentiation into the neuronal lineage (HOXA1 and NCAM1 labeling),[2]; RA treatment,higher differentiation into the neuronal lineage
same,genes whose expression was significantly changed (over two-fold) relative to untreated controls,[1]; [4],several hundred
same,"homeobox protein genes enriched in upregulated genes, fold above expected frequency","[1]; Gene Ontology functional annotation (DAVID), RA 1 μM",14.1 fold
same,expression of anterior HoxA and HoxB genes,"[1]; HESC EBs, RA 1 μM, seven days",specifically upregulated
same,HOXA1 overexpression at the mRNA level,"[1]; RA 1 μM, seven days, relative to control",13.6 fold
same,fold enrichment of heart specific genes in downregulated genes,"[1]; seven days, RA 1 μM",5.3
same,fold enrichment of brain specific genes in upregulated genes,[1]; [6],2.6 fold
